For assay [1], the target named is Histamine H2 receptor (Homo sapiens) (UniProt P25021). Conditions: Compound concentration 10.0 uM; call rule not given here.
Assay [2] deals with Hepatocyte growth factor receptor (Homo sapiens), P08581 [M1250T]. Conditions: Compound concentration 1000.0 nM.
Assay [3] deals with Kappa-type opioid receptor (Homo sapiens) (UniProt P41145). The settings on record: Compound concentration 10.0 uM.
Assay [4] has as its target cAMP-dependent protein kinase catalytic subunit alpha (Homo sapiens) (UniProt P17612). Conditions: Compound concentration 1000.0 nM.
Assay [5] deals with Alpha-1D adrenergic receptor (Homo sapiens) (UniProt P25100). The settings on record: Compound concentration 10.0 uM.
Sequence of Alpha-1D adrenergic receptor (Homo sapiens) (P25100 whole entry): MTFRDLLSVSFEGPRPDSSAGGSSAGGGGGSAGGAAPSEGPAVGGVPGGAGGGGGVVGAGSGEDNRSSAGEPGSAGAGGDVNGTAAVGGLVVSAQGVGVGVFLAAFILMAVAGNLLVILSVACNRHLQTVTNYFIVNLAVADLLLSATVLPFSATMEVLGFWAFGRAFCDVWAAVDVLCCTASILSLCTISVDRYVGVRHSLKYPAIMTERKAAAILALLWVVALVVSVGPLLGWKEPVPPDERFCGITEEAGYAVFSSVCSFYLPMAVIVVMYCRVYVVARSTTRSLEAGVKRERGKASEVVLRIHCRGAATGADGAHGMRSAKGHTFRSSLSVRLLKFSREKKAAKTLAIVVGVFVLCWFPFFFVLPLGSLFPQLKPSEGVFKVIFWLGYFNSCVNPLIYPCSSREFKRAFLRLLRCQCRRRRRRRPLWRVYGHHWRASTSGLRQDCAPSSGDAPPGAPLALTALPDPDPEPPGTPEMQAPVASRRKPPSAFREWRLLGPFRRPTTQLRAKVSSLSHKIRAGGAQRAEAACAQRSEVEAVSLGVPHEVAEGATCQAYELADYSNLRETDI
The target in assay [6] is T1, Sodium-dependent dopamine transporter (Homo sapiens, UniProt Q01959). The assay is described as follows: GPCRScan assay: inhibition of DAT. More on the design: radioligand conc. used [nm] 3.6 – 16.0, parental cells stable HEK.
T1 sequence (Q01959 whole entry): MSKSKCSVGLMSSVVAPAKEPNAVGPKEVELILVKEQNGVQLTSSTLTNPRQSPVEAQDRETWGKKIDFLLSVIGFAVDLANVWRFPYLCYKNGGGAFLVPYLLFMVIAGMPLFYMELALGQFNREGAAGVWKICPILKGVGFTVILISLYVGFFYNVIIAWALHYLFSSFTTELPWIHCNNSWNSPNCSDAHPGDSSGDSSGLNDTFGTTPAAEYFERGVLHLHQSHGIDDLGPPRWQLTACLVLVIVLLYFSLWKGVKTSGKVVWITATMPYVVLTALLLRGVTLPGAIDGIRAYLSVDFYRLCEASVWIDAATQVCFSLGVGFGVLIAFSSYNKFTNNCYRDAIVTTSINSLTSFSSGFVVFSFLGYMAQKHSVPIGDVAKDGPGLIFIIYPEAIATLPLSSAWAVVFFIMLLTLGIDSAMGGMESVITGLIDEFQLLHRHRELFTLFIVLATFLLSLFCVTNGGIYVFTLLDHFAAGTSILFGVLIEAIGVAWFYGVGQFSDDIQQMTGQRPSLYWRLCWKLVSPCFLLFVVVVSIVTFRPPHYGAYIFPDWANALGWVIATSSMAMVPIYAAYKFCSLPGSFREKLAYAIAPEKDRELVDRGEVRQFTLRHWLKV
Assay [7] concerns the target MAP kinase-activated protein kinase 5 (Homo sapiens) (UniProt Q8IW41). Conditions: Compound concentration 1000.0 nM.
For assay [8], the target named is T1, Sodium-dependent dopamine transporter. Kind of assay: […] binding assay (SLC6A3).
Assay [9] has as its target Alpha-1D adrenergic receptor (Homo sapiens, UniProt P25100). The assay is described as follows: GPCRScan assay: inhibition of Alpha1D. More on the design: radioligand conc. used [nm] 0.3 – 1.0, parental cells stable.
Assay [10] has as its target 5-hydroxytryptamine receptor 1A (Homo sapiens) (UniProt P08908). The settings on record: Compound concentration 10.0 uM.
For the next assay, the target named is D(2) dopamine receptor (Homo sapiens, UniProt P14416). Kind of assay: GPCRScan assay: inhibition of D2. Also on record: radioligand conc. used [nm] 0.4 – 1.0, parental cells stable fibroblast.
Sequence of D(2) dopamine receptor (P14416 whole entry): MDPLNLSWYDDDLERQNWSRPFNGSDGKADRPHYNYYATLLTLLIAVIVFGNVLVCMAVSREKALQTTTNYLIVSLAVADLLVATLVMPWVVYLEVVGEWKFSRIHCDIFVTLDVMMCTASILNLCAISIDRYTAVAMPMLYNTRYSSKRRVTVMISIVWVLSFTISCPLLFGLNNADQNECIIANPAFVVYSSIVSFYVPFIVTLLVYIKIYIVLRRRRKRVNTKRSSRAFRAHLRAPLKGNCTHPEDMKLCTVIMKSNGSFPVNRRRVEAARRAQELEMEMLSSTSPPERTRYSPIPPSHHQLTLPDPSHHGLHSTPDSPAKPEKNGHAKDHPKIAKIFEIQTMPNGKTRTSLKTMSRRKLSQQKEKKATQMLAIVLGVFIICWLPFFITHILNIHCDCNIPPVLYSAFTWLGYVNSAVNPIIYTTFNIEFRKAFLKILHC
Assay [11] concerns the target Alpha-1A adrenergic receptor (Homo sapiens) (UniProt P35348). The settings on record: Compound concentration 10.0 uM.
The target of assay [12] is Histamine H3 receptor (Homo sapiens) (UniProt Q9Y5N1). The settings on record: Compound concentration 10.0 uM.
Sequence of Histamine H3 receptor (Homo sapiens) (Q9Y5N1 whole entry): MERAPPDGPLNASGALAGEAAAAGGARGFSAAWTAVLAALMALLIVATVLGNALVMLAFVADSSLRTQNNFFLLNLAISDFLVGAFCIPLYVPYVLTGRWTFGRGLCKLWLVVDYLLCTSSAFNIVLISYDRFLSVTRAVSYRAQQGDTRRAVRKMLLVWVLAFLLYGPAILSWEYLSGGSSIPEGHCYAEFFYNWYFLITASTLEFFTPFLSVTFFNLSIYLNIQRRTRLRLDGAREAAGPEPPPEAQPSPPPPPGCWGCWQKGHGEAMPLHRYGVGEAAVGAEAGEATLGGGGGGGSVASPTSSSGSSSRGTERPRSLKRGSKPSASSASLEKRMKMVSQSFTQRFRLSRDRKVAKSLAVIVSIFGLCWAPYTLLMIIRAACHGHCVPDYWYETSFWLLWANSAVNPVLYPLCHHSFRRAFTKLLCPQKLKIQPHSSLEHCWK
Assay [13] deals with Tyrosine-protein kinase ABL1 (Homo sapiens) (UniProt P00519). Conditions: Compound concentration 1000.0 nM.
The target in assay [14] is Dual specificity mitogen-activated protein kinase kinase 7 (Homo sapiens) (UniProt O14733). The settings on record: Compound concentration 1000.0 nM.
Sequence of Dual specificity mitogen-activated protein kinase kinase 7 (Homo sapiens) (O14733 whole entry): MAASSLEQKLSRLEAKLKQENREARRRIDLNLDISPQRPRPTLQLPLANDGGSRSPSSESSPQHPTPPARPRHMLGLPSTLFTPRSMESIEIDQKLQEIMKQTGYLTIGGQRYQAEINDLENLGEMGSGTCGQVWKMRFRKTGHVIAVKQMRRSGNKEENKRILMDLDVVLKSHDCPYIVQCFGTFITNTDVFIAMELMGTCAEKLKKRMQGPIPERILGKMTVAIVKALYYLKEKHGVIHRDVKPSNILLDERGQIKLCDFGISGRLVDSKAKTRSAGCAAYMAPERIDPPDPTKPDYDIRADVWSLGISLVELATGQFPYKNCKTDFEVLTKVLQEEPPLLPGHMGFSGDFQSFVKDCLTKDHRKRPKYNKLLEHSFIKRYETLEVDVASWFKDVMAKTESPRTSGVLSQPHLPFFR
Assay [15] has as its target Serine/threonine-protein kinase B-raf (Homo sapiens) (UniProt P15056). Conditions: Compound concentration 1000.0 nM.
Assay [16] deals with 5-hydroxytryptamine receptor 6 (Homo sapiens) (UniProt P50406). Conditions: Compound concentration 10.0 uM.
Sequence of 5-hydroxytryptamine receptor 6 (Homo sapiens) (P50406 whole entry): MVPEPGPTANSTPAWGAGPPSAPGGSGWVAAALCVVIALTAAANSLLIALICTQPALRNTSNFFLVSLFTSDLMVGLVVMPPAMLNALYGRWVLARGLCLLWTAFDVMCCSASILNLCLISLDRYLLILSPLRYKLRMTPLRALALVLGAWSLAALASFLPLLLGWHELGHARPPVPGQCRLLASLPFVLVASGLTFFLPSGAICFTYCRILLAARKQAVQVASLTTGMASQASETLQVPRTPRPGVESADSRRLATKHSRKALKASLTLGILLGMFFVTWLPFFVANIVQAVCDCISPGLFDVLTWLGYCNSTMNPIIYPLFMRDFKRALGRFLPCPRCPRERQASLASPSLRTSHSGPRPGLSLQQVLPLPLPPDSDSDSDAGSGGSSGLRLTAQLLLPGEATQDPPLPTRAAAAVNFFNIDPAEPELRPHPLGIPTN
Assay [17] has as its system Tyrosine-protein kinase ABL1 (Homo sapiens), P00519 [T315I]. The settings on record: Compound concentration 1000.0 nM.
Assay [18] has as its target Histamine H1 receptor (Homo sapiens) (UniProt P35367). Conditions: Compound concentration 10.0 uM.
Assay [19] relates to Tyrosine-protein kinase ABL1 (Homo sapiens), P00519 [Q252H]. Conditions: Compound concentration 1000.0 nM.
Assay [20] addresses Delta-type opioid receptor (Homo sapiens) (UniProt P41143). Conditions: Compound concentration 10.0 uM.
For assay [21], the system named is Tyrosine-protein kinase ABL1 (Homo sapiens), P00519 [F317L]. Conditions: Compound concentration 1000.0 nM.
The test system is the same in assay [22]. The settings on record: Compound concentration 1000.0 nM. The source holds these as a separate data set.

Sequence of Histamine H1 receptor (Homo sapiens) (P35367 whole entry): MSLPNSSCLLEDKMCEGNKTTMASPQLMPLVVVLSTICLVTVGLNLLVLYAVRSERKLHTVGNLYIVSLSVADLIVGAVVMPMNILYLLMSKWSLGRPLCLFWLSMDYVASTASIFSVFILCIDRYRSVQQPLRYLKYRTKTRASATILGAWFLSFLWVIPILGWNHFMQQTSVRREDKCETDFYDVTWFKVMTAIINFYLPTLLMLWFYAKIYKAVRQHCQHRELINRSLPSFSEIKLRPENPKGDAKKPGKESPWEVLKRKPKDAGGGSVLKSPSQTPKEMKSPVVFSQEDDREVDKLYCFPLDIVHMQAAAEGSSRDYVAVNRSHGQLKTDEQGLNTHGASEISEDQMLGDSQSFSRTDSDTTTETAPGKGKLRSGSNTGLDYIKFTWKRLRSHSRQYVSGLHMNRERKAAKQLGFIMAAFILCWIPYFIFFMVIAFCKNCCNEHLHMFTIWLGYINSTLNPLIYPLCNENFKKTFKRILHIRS
Sequence of Kappa-type opioid receptor (Homo sapiens) (P41145 whole entry): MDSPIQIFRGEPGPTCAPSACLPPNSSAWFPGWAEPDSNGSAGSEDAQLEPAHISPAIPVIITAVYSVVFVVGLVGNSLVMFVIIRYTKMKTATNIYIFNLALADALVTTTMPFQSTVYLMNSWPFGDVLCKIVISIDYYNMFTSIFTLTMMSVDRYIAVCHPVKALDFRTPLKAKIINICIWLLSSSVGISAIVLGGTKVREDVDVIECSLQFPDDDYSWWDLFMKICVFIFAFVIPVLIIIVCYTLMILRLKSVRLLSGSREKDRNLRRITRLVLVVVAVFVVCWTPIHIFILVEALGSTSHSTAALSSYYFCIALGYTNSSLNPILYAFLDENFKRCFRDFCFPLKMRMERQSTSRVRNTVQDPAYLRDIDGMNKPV
Sequence of Alpha-1D adrenergic receptor (P25100 whole entry): as the sequence (P25100 whole entry) above
Sequence of Alpha-1A adrenergic receptor (Homo sapiens) (P35348 whole entry): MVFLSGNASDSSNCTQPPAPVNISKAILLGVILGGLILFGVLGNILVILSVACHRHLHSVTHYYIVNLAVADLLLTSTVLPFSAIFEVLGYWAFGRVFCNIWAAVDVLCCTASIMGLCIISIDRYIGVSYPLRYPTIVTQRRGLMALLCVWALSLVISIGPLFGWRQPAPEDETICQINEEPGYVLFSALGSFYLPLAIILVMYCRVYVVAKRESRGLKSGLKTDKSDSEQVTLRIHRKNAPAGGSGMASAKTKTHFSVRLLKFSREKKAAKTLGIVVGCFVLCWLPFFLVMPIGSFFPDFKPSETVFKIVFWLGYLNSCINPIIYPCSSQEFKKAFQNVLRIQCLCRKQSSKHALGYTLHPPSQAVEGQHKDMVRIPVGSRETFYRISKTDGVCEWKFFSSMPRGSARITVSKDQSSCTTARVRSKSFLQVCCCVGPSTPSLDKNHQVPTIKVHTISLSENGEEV
Sequence of Histamine H2 receptor (Homo sapiens) (P25021 whole entry): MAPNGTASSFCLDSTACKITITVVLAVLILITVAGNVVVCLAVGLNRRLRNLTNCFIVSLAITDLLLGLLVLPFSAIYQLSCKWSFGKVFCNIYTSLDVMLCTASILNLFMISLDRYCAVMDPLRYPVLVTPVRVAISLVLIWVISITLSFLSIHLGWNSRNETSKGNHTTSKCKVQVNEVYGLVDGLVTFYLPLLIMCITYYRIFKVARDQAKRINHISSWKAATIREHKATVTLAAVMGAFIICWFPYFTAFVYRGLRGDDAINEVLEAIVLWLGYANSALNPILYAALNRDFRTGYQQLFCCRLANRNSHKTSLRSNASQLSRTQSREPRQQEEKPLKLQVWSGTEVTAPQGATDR

One may read the inhibition as the relative decrease from the control value, in per cent. For the compound `CN([C@@H]1CCc2c(CC(=O)O)c3ccccc3n2C1)S(=O)(=O)c1ccc(F)cc1` [MK-7246], the inhibition in [1] was -1.62%; in [3], 4.56%; in [5], 50%; in assay [10] it was 15.5%; in assay [11], -4.89%; in [12], 4.03%. Moreover, the residual activity was 100% in assay [2], 100% in assay [4] and 94% in assay [7]. The Ki in assay [6] (read-out: Ki) is 283 nM; in [6] (read-out: pKi (converted)), 316 nM; in assay [8], 373 nM (not active); in assay [9], 10000 nM; at D(2) dopamine receptor, 3750 nM.
For the compound `CN([C@@H]1CCc2c(CC(=O)O)c3cc(S(C)(=O)=O)ccc3n2C1)S(=O)(=O)c1ccc(F)cc1`, the residual activity in assay [13] is 74%; in assay [14], 100%; in assay [15], 98%; in assay [17], 88%; in assay [19] it was 98%; in [21], 90%. Further, in assay [22], the residual activity was 92%. Besides, the inhibition in assay [16] is -5.39%; in assay [18], -9.04%; in assay [20], 20%.

The values are drawn from ChEMBL document CHEMBL4507290 (2021).
